Measurements: ChEMBL document CHEMBL1201862, “PubChem BioAssay data set” (2004)
Active and inactive are the calls of the source.

Experiments:
[1] = HIV-1 Vif–A3G interaction blockers – biochemical, TR-FRET, GST-Vif 1-94, biotin-A3G peptide, dose response retest, primary screen (AID 1117319); format: functional;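 note: TR-FRET signal of purified GST-Vif binding a biotinylated A3G peptide; inhibitors lower the FRET signal by blocking Vif and A3G binding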
fMet-Leu-Phe receptor = target: T1, fMet-Leu-Phe receptor (Homo sapiens, UniProt P21462); assay: formyl peptide receptor binders – dose response (AID 519); format: functional
T1 sequence (P21462 whole entry): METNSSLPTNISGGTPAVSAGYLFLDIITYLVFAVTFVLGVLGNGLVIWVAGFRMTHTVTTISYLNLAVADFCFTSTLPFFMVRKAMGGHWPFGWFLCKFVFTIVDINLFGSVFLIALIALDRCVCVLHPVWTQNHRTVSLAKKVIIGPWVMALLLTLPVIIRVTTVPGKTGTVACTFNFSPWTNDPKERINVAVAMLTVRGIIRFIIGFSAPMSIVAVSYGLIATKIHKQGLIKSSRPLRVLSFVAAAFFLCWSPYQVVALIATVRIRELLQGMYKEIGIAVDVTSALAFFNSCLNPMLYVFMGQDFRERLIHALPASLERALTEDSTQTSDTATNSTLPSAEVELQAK

[2] = Luminescence-based cell-based high throughput dose response assay to identify activators of the DAF-12 from the parasite S. stercoralis (ssDAF-12).; format: functional
[3] = target: T2, Apoptotic protease-activating factor 1 (Homo sapiens, UniProt O14727); format: functional
T2 sequence (O14727 whole entry): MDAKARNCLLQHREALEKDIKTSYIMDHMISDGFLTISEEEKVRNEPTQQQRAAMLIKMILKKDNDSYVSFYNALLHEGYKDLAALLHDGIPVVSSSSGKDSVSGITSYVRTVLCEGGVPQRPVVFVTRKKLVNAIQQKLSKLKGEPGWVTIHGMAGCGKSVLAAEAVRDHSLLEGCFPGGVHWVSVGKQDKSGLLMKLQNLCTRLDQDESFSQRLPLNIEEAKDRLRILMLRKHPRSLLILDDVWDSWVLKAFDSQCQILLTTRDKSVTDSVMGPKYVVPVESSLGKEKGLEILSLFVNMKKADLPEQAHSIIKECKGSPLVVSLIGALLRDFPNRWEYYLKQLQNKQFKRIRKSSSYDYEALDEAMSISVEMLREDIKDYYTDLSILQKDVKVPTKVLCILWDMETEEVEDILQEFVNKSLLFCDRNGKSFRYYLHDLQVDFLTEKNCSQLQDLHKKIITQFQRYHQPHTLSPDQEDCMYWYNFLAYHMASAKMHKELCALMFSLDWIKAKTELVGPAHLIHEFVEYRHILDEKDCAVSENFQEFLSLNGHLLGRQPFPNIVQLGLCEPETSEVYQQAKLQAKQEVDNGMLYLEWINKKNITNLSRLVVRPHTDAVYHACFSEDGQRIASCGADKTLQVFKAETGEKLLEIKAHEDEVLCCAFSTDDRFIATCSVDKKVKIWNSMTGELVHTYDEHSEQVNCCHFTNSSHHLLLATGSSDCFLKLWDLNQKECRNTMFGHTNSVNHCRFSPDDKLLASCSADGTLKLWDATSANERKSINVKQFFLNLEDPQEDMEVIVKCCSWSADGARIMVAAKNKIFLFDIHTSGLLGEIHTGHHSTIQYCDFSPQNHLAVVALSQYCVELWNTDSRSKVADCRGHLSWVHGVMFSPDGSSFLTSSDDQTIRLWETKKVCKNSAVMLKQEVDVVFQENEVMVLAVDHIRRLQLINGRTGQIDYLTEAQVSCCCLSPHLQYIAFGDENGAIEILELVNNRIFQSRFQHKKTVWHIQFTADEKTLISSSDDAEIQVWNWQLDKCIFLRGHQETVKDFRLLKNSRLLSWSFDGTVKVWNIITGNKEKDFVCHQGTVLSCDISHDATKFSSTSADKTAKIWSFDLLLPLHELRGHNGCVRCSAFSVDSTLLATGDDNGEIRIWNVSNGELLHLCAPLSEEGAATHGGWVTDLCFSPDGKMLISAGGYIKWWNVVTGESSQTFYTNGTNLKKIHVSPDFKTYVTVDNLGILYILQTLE

Nonstructural protein 1 = Nonstructural protein 1 (Influenza A virus, UniProt Q194T2); format: functional, Influenza A virus (A/California/07/2009(H1N1))
Sequence of Nonstructural protein 1 (Q194T2 whole entry): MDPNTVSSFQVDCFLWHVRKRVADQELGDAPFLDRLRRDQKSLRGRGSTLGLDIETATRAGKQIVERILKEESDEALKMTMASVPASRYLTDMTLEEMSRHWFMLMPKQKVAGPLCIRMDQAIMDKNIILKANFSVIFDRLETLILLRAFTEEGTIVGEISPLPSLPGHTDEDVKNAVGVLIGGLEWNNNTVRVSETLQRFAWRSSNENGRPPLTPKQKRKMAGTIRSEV

[4] = target: T3, COUP transcription factor 2 (Homo sapiens, UniProt P24468); assay: Luminescence-based cell-based high throughput dose response assay to identify inhibitors of COUP-TFII (NR2F2).; format: functional;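 note: HEK293 cells transiently cotransfected with COUP-TFII expression vector and reporter; luciferase reporter luminescence driven by COUP-TFII from the pX2-168 reporter plasmid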
T3 sequence (P24468 whole entry): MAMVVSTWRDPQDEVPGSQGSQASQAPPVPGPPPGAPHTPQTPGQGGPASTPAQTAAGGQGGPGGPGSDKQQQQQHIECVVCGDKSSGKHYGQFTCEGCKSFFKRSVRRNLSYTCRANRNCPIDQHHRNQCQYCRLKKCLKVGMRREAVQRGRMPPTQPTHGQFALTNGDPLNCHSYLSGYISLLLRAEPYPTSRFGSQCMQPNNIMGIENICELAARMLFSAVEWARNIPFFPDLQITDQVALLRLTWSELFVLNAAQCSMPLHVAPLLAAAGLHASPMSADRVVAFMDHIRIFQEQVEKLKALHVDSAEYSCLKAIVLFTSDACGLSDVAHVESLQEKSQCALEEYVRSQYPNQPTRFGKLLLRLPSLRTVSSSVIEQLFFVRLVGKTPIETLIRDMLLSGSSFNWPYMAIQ

Caspase-6 = target: T4, Caspase-6 (Homo sapiens, UniProt P55212); assay: inhibition of CASP6 peptide cleavage – biochemical, VEID-R110 fluorescence, cherry-pick, dose response (AID 720632)
T4 sequence (P55212 whole entry): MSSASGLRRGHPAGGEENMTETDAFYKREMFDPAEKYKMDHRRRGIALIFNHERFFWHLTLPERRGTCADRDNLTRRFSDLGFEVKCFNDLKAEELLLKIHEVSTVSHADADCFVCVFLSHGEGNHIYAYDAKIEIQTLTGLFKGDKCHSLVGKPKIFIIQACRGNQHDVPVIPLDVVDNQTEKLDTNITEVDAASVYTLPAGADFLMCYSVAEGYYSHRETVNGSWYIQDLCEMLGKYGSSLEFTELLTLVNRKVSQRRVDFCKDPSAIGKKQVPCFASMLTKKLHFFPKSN

[5] = target: T5, Rac GTPase-activating protein 1 (Homo sapiens, UniProt Q9H0H5); assay: blockers of MgcRacGAP-driven Rac1 GTP hydrolysis – biochemical, ADP Hunter fluorescence, primary and confirmatory, confirmation (AID 624330); format: functional
T5 sequence (Q9H0H5 whole entry): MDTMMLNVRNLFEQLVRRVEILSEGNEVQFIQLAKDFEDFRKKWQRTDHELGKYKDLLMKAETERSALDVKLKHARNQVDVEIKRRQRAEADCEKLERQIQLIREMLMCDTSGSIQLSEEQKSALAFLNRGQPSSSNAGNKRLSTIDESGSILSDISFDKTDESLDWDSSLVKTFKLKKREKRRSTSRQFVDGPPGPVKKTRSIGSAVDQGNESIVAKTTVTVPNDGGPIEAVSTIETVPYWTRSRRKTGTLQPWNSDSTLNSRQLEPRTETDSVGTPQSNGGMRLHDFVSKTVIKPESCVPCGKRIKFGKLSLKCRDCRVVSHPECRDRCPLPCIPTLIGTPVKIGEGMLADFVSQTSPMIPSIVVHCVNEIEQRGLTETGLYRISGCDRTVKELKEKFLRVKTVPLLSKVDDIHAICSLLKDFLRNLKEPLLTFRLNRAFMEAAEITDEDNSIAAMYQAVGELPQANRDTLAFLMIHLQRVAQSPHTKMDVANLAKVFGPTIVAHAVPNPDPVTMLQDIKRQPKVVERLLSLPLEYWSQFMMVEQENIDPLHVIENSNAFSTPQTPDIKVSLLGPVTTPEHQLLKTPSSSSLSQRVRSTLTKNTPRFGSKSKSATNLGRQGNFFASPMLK

[6] = activation of miR-122 Renilla sensor silencing – cell-based, Huh7 psiCHECK-miR122, Renilla luciferase, cherry-picked, dose response (AID 651956); format: functional;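 note: huh7 hepatoma cells stably carrying a psiCHECK-2 miR-122 sensor plasmid; renilla luciferase signal reporting endogenous miR-122 activity after 48 h compound exposure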
[7] = blockers of HIV-1 envelope-mediated cell-cell fusion – cherry-pick, dose response (AID 652057); format: functional, cell-based
[8] = HIV-1 AD8 envelope cell-cell fusion blockers – cherry-pick, dose response (AID 652062); format: functional, cell-based;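 note: luciferase signal from cell-cell fusion driven by HIV-1 clade B AD8 Env; potency is for inhibitors of fusion seen as a drop in luminescence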
[9] = blockers of HIV-1 ZM109 envelope-driven cell-cell fusion – HeLa effector, CEM target cells, luciferase, cherry-pick, dose response (AID 652058); format: functional, cell-based;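 note: luciferase signal from HIV-1 Env mediated cell-cell fusion of effector and target cells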
[10] = viability loss in THP-1 monocytes – THP-1 cells, cytotoxicity control for Vif-APOBEC3G degradation inhibitor project, dose response (AID 1117359); format: functional; settings: THP-1
[11] = P. falciparum Dd2 growth inhibitors, dose response, SYBR Green, cherry-picked samples (AID 1159567); format: functional, cell-based

Q: With `COc1ccc(-n2c(=O)[nH]c3ccccc3c2=O)c(OC)c1` as the compound, how does the IC50 [1] read?
A: Its IC50 is > 100 µM (active).

Q: For `C=CCOc1ccc(C2C(C(=O)c3ccco3)=C(O)C(=O)N2Cc2cccnc2)cc1` (centres undefined), which Ki (fMet-Leu-Phe receptor) is on record?
A: Its Ki is 9.7 µM (active).

Q: For `CCOC(=O)Nc1ccc(OC)cc1S(=O)(=O)N1CCCCC1`, which Ki (fMet-Leu-Phe receptor) is on record?
A: The Ki was > 66.7 µM (inactive).

Q: Which IC50 [2] does the source give for `CCC(C)N1C(=O)/C(=C\c2ccc(N3CCCCCC3)cc2)C(=O)NC1=S` (centres undefined) here?
A: Its IC50 is > 67.5 µM (inactive).

Q: With `O=C(O)CCNc1cc(N2CCN(C(=O)c3ccco3)CC2)c2noc3c2c1C(=O)c1ccccc1-3` as the compound, how does the IC50 [3] read?
A: Its IC50 is 21.4 µM (active).

Q: What about the IC50 (Nonstructural protein 1) of the same compound?
A: Its IC50 is 26.9 µM (active).

Q: For `Cc1cc(NC2CCCC2)n2ncc(-c3ccccc3)c2n1`, which IC50 [4] is on record?
A: Its IC50 is 49.3 µM (inactive).

Q: Which results are given for `COc1cc(/C=N/Nc2ccc(C(=O)O)cc2)ccc1O`?
A: AC50 (Caspase-6): 11.1 µM (active); IC50 [5]: 39.9 µM (active)

Q: With `CCN(C[C@H]1[C@H](c2ccccc2)[C@@H](CO)N1C(=O)C1CC1)C(=O)NC1CCCC1` as the compound, how does the AC50 [6] read?
A: Its AC50 is 47.8 µM (active).

Q: Which AC50 [6] does the source give for `CCN(C[C@@H]1[C@@H](c2ccc(C3=CCCCC3)cc2)[C@@H](CO)N1CC1CC1)C(C)=O` here?
A: Its AC50 is 31.2 µM (active).

Q: Which AC50 [7] does the source give for `CCCC#Cc1ccc2c(c1)O[C@@H](CN(C)S(=O)(=O)c1cccc(F)c1)[C@@H](C)CN([C@@H](C)CO)S2(=O)=O` here?
A: The AC50 was 4.98 µM (active).

Q: And the AC50 [8]?
A: The AC50 was 13.3 µM (active).

Q: And the AC50 [9]?
A: The AC50 was 3.62 µM (active).

Q: For `Clc1ccc(/C(Cc2nc3ccccc3[nH]2)=N\Nc2ccccc2)cc1`, which CC50 [10] is on record?
A: Its CC50 is > 40 µM (active).

Q: Which AC50 [11] does the source give for `COc1ccccc1-c1ccccc1[C@@H]1[C@@H](C#N)N(C(=O)C2CC2)[C@@H]1CO` here?
A: The AC50 was 17.4 µM (active).

Q: With `COc1ccc(NC(=O)N(C)C[C@@H]2Oc3cc(-c4ccc(C)cc4)ccc3S(=O)(=O)N([C@@H](C)CO)C[C@@H]2C)cc1` as the compound, how does the AC50 [11] read?
A: The AC50 was 3.21 µM (active).

Q: What does the source list for `O=C(N/N=C/c1cc(Br)c(O)c(Br)c1O)c1cccnc1`?
A: AC50 (Caspase-6): 22.9 µM (active); IC50 (Nonstructural protein 1): 15.5 µM (active)
